In one experiment the target is T1, EGFR (Homo sapiens, UniProt P00533).
T1 construct: A431 crude membrane extracts as source of the receptor; endogenous in cells; host or cells: A431 human epidermoid carcinoma cells, crude membranes
As to the kind of experiment: EGFR-Autophosphorylation Assay (AMIKA assay). As to conditions: A431 membranes; for inhibition at 1 µM: 1 μM compound; for inhibition at 1 µM / inhibition at 10 µM: EGF-stimulated; for inhibition at 10 µM: 10 μM compound; for IC50: EGF 200 nM pre-treatment. The format is biochemical. The protocol: EGFR-Autophosphorylation Assay (AMIKA assay) The EGFR autophosphorylation was assayed using A431 crude membrane extracts as source of the receptor. Membrane purification: Membranes were prepared as reported by A. Levitzky et al. (Methods in Enzymology 201, 347 (1991) with minor modifications and adapting the method to the A431 human epidermoid carcinoma cell line. Briefly, low density cells growing in RPMI 1640 plus 10% foetal calf serum were detached using 1 mM EDTA in phosphate buffer saline (PBS) and lysed in cold Lysing buffer (1 ml/10^6 cells) (20 mM HEPES pH 7.6, 10 mM NaCl, 2 mM EDTA, […], 1 mM PMSF). Cells were homogenized by 10 strokes in Dounce homogenizer. Nuclei and debris were removed by low speed centrifugation. Membranes were pelletized by ultracentrifugation (1 h, 100000×g) and resuspended in cold HNG buffer (50 mM HEPES pH 7.6, 125 mM NaCl, 10% glycerol). Protein concentration, determined by Pierce BCA method, was adjusted to 1.5-2 mg/ml. Aliquots were stored at -80° C. Determination of IC50 : […] The reaction was stopped with […] solution. The samples were heated 5 min at 95° C. and submitted to SDS-PAGE (7.5% acrylamide gel). Gels were fixed in 40% methanol:10% acetic acid for 1 h and washed overnight with 20% methanol:7% acetic acid. After 15 min in 50% methanol:2% glycerol gels were dried and exposed overnight. Bands corresponding to EGFR were excised from the gels and counted in a β-counter.

Experiment [1] concerns EGF-induced tyrosine phosphorylation in A431 cells. As to the kind of experiment: Inhibition of cellular tyrosine autophosphorylation (VAP assay). The format is cell-based. As to conditions: Homo sapiens, A-431, 10 min, read-out: VAP IC50. The protocol: Inhibition of cellular tyrosine autophosphorylation (VAP assay)
EGF is able to induce the phosphorylation in tyrosine of a specific set of intracellular proteins including EGFR itself. This increase in tyrosine phosphorylation was measured using the Vectastain-ABC-AP kit (Vector Laboratories) following the manufacturer's instructions. Briefly, 2×10^4 A431 cells per well were plated into a microtiter plate and incubated for 3 days at 37° C./5% CO2 until the cultures reached confluency. Cell monolayers were washed with PBS and covered with fresh medium containing 0.1 bovine serum albumin (BSA). Serial dilution of test compounds were added 2 h before the addition of 100 ng/ml EGF; after 10 min stimulation the culture medium was withdrawn, cells were washed 2 times with PBS and fixed for 10 min with cold methanol (-20° C.). After fixation […] of blocking solution (3% BSA in PBS, 0.2% Tween 20, 1% normal horse serum) were added for 1 h at 37° C. Blocking solution was replaced with 3% BSA in PBS containing the antiphosphotyrosine antibody 4G10 (UBI) diluted 1:30000 and incubated for 1 h. […] Reaction was developed for 30 min in the dark and the plates were read at 405 nm.

The next experiment relates to A431 cells. As to the kind of experiment: SRB-Antiproliferative assay (A431 assay). The format is cell-based. As to conditions: Homo sapiens, A-431, 72 h, read-out: A431 IC50. As to the method: SRB-Antiproliferative assay (A431 assay)
A431 cells were seeded into 96-well microtiter plates (5000 cells/cm^2) and incubated overnight at 37° C./5% CO2. Compounds dissolved in DMSO were added in serial dilution and plates were incubated for 3 days at 37° C./5% CO2. Cells were fixed with cold TCA (10% final concentration) and stained with 0.4% Sulforhodamine B dye in 1% acetic acid for 30 min.

Where two headings read alike, the source gives them in different places.

Here are results for two molecules from patent US6057326A, “Bicyclic 4-aralkylaminopyrimidine derivatives as tyrosine kinase inhibitors” (Pharmacia & Upjohn S.p.A, priority 1996, dated 2000).

The inhibition is the drop in the measured response relative to a control, in per cent. Broadly, the IC50 is the concentration that inhibits the measured activity by half.

T1 sequence (P00533 25-1210): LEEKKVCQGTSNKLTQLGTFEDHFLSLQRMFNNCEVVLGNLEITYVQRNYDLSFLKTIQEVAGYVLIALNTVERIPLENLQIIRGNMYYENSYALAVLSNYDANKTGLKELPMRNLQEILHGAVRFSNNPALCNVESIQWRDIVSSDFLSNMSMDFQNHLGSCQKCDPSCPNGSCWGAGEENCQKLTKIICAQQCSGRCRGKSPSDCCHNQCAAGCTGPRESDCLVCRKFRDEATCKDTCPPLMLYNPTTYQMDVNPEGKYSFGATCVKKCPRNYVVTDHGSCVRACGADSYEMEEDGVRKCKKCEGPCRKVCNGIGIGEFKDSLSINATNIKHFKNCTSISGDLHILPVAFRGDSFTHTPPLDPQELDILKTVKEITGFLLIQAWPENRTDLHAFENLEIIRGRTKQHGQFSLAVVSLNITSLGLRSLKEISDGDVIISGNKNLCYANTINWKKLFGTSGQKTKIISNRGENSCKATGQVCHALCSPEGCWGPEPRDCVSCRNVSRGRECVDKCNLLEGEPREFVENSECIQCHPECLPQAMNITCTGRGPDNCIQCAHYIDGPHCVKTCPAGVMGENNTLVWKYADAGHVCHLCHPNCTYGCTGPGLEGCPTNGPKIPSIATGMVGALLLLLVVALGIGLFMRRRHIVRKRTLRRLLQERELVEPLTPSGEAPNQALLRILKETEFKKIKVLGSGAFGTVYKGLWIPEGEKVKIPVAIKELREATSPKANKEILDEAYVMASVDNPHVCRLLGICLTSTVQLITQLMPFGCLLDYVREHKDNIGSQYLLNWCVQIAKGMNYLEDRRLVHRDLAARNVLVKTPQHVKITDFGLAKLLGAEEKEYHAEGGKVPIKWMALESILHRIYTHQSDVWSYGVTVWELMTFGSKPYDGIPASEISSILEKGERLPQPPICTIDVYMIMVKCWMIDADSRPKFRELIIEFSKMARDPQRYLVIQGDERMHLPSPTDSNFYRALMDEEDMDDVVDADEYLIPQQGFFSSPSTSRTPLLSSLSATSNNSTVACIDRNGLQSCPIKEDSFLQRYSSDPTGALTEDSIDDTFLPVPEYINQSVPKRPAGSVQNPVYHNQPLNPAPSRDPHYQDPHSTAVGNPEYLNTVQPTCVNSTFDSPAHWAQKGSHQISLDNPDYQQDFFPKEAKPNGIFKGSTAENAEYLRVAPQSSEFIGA

Turning to `COc1cc2ncnc(N[C@H](CO)c3ccccc3)c2cc1OC` [FCE 29771, (S)-4-[α-(hydroxymethyl)benzylamino]-6,7dimethoxyquinazoline], on EGFR, testing at 1 µM gave an inhibition of 93.8%, testing at 10 µM gave an inhibition of 98.3% and the IC50 is 24 nM. In addition, the 50% inhibitory concentration (IC50) in experiment [1] (A431 cells, 100 ng/ml EGF, 10 min stimulation) was 800 nM. Also, the IC50 in the experiment on A431 cells (A431 cells, 3 days, SRB) was above 1560 nM.
Turning to `COc1cc2ncnc(N[C@H](COC(C)=O)c3ccccc3)c2cc1OC` [FCE 29772, (S)-4-[α-(acetoxymethyl)benzylamino]-6,7dimethoxyquinazoline], on EGFR, the inhibition at 1 µM was found to be 94.9%, at 10 µM the inhibition was 98% and the half-maximal inhibitory concentration (IC50) is 81 nM. The IC50 in experiment [1] came to 1310 nM. For the same molecule, the IC50 in the experiment with A431 cells is 5300 nM.
